Source: patent publication US8524861B2, “Treatment of bacterial infections” (priority 2004, dated 2013)
Where no end group is shown, it is not given here.

Tests used:
Format in all cases: cell-based
[1] = test system: Pseudomonas aeruginosa (ATCC strain 9027); conditions: for IC50: ATCC strain 9027; for Effectiveness against Pseudomonadales, in particular P. aeruginosa, in words: summary in description
Method: (§1) Bacterial Stocks—ATCC derived stock bacteria were obtained from Oxoid Limited. Pseudomonas aeruginosa (ATCC strain 9027) or Staphylococcus aureus (ATCC strain 6538P) were obtained in ‘Cultiloop’ format. Stocks were prepared by inoculating 20 ml of LB broth with a single Cultiloop, and incubating overnight at 37° C. Cells present after overnight incubation were harvested by removing larger aggregates by centrifugation (3000 g, 10 minutes), and withdrawing 16 ml of the supernatant, which was likely to contain mainly planktonic bacteria. To this, 4 ml of sterile glycerol was added (the latter having been sterilised by autoclaving). The resultant suspension was divided between 15× 1 ml cryovials before freezing at −85° C.
(§2) Preliminary experiments were carried out to estimate the amount to dilute bacterial stocks which when on addition of 25 μl of diluted stock to 100 μl of fresh LB broth would result in bacteria in log phase growth after overnight incubation at 37° C.
(§3) The peptides were examined for antibacterial efficacy against Staphylococcus aureus. To test the efficacy of peptides, dilutions of test peptides or PBS (for use as a control) were prepared in LB broth, and 100 μl aliquots of these placed in 96-well plates. A vial of planktonic bacterial stock was thawed in a 37° C. incubator and diluted to the level previously determined which would produce log phase growth after overnight incubation (see above). 25 μl of this bacterial dilution was then added to the test wells (some wells containing LB broth without peptide were left without any bacterial inoculation, these being used as a blank). After overnight growth, the concentration of bacteria in individual wells was assessed by measuring absorbance at 620 nm, in a microplate spectrophotometer. The average absorbance of wells for specific concentrations of peptides was calculated, and from this the percentage inhibition (relative to untreated wells) was also calculated and plotted against concentration (along with an estimate of error on that % inhibition).
Peptides in accordance with the invention were also examined for antibacterial efficacy against Pseudomonas aeruginosa using the same technique as described above to calculate the IC50 values.
Points were obtained by dividing the average for six treated wells by the average for six untreated wells, and bars show an estimate of the error for these calculated values.
(§4) The inventor constructed an expanded library of peptides derived from either apolipoprotein B or apolipoprotein E in order to further evaluate polypeptides in accordance with the invention. Further experiments were then conducted to investigate the antibacterial activity of this peptide library against the bacteria P. aeroginosa, S. aureus and S. pneumoniae. The methods used to determine the IC50 values for each peptide were as described in the Example 1.

[2] = test system: Staphylococcus aureus (ATCC strain 6538P); conditions: for IC50: ATCC strain 6538P; for Activity against Staphylococcus, in particular S. aureus, in words: summary in description
Method: as §1, §2, §3, §4

[3] = test system: Staphylococcus aureus, Pseudomonas aeruginosa, and Streptococcus pneumoniae; experiment: Antibacterial activity, overall statements over the test bacteria
Source text: The inventors conducted exhaustive experiments to assess the antibacterial activity of peptides from apolipoproteins and derivatives thereof. Peptides and derivatives from ApoE and ApoB were a particular focus. […] Example 1 illustrates the efficacy of the polypeptides according to the invention compared to apoE141-149 and apoB3359-3367 (i.e. non-tandem repeats) and other peptides derived from apolipoproteins.
The activity of polypeptides in accordance with the invention can be seen in Tables 5, 6, 7 and 8.
as §3, §4

Streptococcus pneumoniae = test system: Streptococcus pneumoniae
Method: as §3, with “inhibition). […] The inventor constructed an expanded library of peptides derived from either apolipoprotein B or apolipoprotein E in order to further evaluate polypeptides in accordance with the invention. Further experiments were then conducted to investigate the antibacterial activity of this peptide library against the bacteria P. aeroginosa, S. aureus and S. pneumoniae. The methods used to determine the IC50 values for each peptide were as described in the Example 1.” for “inhibition).”

| Substance | IC50 [1] | IC50 [2] | Antibacterial activity, in words, bacterium not specified [3] | Effectiveness against Pseudomonadales, in particular P. aeruginosa, in words [1] | IC50 (Streptococcus pneumoniae) | Activity against Staphylococcus, in particular S. aureus, in words [2] |
| --- | --- | --- | --- | --- | --- | --- |
| Ac-LRKLRKRLLLRKLRKRWW-NH2 (N-terminus and C-terminus assumed) [MU_112] | 7 µM | 7 µM | particularly effective |  |  |  |
| Ac-LRKLRKRLLRLRKLRKRLLR-NH2 (N-terminus and C-terminus assumed) [MU_82] |  | 13 µM | particularly effective | particularly effective |  |  |
| Ac-LRKLRKRLLWRKWRKRLL-NH2 (N-terminus and C-terminus assumed) [MU_113] |  | 11 µM |  | particularly effective |  |  |
| Ac-LRKLRKRLLWRKWRKRWW-NH2 (N-terminus and C-terminus assumed) [MU_111] | 12.5 µM | 7 µM |  |  |  |  |
| Ac-LRKLRKRLRKLRKR-NH2 (N-terminus and C-terminus assumed) [GIN 08] | 9.2 µM |  |  | particularly effective | > 53 µM |  |
| Ac-LRKRLLLRKLRKRLL-NH2 (N-terminus and C-terminus assumed) [GIN 02] | 8.5 µM |  |  | particularly effective |  |  |
| Ac-WRKLRKRLLLRKLRKRLL-NH2 (N-terminus and C-terminus assumed) [MU_115] | 3 µM | 9 µM | particularly effective | particularly effective |  |  |
| Ac-WRKWRKRLLLRKLRKRLL-NH2 (N-terminus and C-terminus assumed) [MU_114] |  | 5.5 µM |  | particularly effective |  | particularly active |
| CRKCRKRCCCRKCRKRCC [MU_12] |  |  | do not show antibacterial activity |  |  |  |
| DRKDRKRDDDRKDRKRDD [MU_3] |  |  | do not show antibacterial activity |  |  |  |
| FRKFRKRFFFRKFRKRFF-NH2 (C-terminus assumed) [MU_7] | 6 µM | 11 µM | particularly effective |  |  |  |
| IRKIRKRIIIRKIRKRII-NH2 (C-terminus assumed) [MU_8] | 45 µM | > 53 µM |  |  |  |  |
| LLRKRLKRLLLRKRLKRL-NH2 (C-terminus assumed) [MU_24] | 7 µM | 34 µM | particularly effective |  |  |  |
| LRKLRKRLL [apoE141-149, reference compound] |  |  | no detectable antibacterial activity |  |  |  |
| LRKLRKRLL-NH2 (C-terminus assumed) [MU_46] | 22 µM |  |  |  | > 53 µM |  |
| LRKLRKRLLLRK [GIN 05] |  |  | do not show antibacterial activity |  |  |  |
| LRVRLASHLRKLRKRLLRDADDLQKRLAVY LRVRLASHLRKLRKRLLRDADDLQKRLAVY (LRVRLASHLRKLRKRLLRDADDLQKRLAVYLRVRLASHLRKLRKRLLRDADDLQKRLAVY) [tandem repeat of Azuma's peptide, 60-mer dimer of apoE133-162] |  |  | improved antibacterial efficacy |  |  |  |
| MRKLRKRLMMRKLRKRLM-NH2 (C-terminus assumed) [MU_43] | 17 µM |  | particularly effective |  |  |  |
| MRKMRKRMMMRKMRKRMM-NH2 (C-terminus assumed) [MU_5] | > 53 µM | > 53 µM |  |  |  |  |
| RKRGWKWRKRGWKW-NH2 (C-terminus assumed) [MU_73] | 42.5 µM | 22 µM | particularly effective |  |  |  |

| Substance | IC50 [1] | IC50 [2] | Antibacterial activity, in words, bacterium not specified [3] | Effectiveness against Pseudomonadales, in particular P. aeruginosa, in words [1] | IC50 (Streptococcus pneumoniae) | Activity against Staphylococcus, in particular S. aureus, in words [2] |
| --- | --- | --- | --- | --- | --- | --- |
| RLTRKRGLK [apoB3359-3367, monomeric 9-mer of apolipoprotein B, reference compound] |  |  | no detectable antibacterial activity |  |  |  |
| RLTRKRGRLTRKRG-NH2 (C-terminus assumed) [MU_74] | 31 µM | > 53 µM |  |  |  |  |
| RWRKRGRKRWRKRGRK-NH2 (C-terminus assumed) [MU_69] | > 53 µM | 27 µM |  |  |  |  |
| RWRKRWRKRWRKRWRK-NH2 (C-terminus assumed) [MU_37] | 23 µM | 35 µM | particularly effective |  |  |  |
| RWRKRWRKRWRKRWRK-NH2 (C-terminus assumed) [MU_71] | 28 µM | 18.5 µM |  |  |  |  |
| RWRKRWRWRKRWRWRKRW-NH2 (C-terminus assumed) [MU 84] | 53 µM | 15 µM |  |  |  |  |
| WRKRWWRWRKRWWR-NH2 (C-terminus assumed) [MU_81] | 28 µM | 20 µM |  |  |  |  |
| WRKWRKFFFRKWRKRWW-NH2 (C-terminus assumed) [MU_116] | 14 µM | 6.5 µM |  |  |  |  |
| WRKWRKRFFWRKWRKRFF-NH2 (C-terminus assumed) [MU_61] | 3 µM | 5 µM | particularly effective | particularly effective |  | particularly active |
| WRKWRKRWRKWRKR-NH2 (C-terminus assumed) [GIN 32] | 5 µM |  |  |  |  |  |
| WRKWRKRWRKWRKRW-NH2 (C-terminus assumed) [MU_59] | 7.5 µM | 11 µM | particularly effective |  |  |  |
| WRKWRKRWWFRKFRKRFF-NH2 (C-terminus assumed) [MU_117] | 10 µM | 7 µM |  |  |  |  |
| WRKWRKRWWFRKWRKRWW-NH2 (C-terminus assumed) [MU_60] | 12.5 µM | 6 µM | particularly effective |  |  | particularly active |
| WRKWRKRWWRKWRKRWW-NH2 (C-terminus assumed) [MU_58] | 7.5 µM | 8 µM | particularly effective |  |  | particularly active |
| WRKWRKRWWRWRKWRKRWWR-NH2 (C-terminus assumed) [MU_83] | 15 µM | 9 µM | particularly effective |  |  |  |
| WRKWRKRWWWRKWRKRWW-NH2 (C-terminus assumed) [MU_4] |  |  | particularly effective |  |  | particularly active |
| WRWKKKWRKWRWKKKWRK-NH2 (C-terminus assumed) [MU_26] | 52 µM | 52 µM |  |  |  |  |
| WRWRRRWRKWRWRRRWRK-NH2 (C-terminus assumed) [MU_25] | > 53 µM | > 53 µM |  |  |  |  |
| YRKYRKRYYYRKYRKRYY-NH2 (C-terminus assumed) [MU_6] | > 53 µM |  |  |  |  | particularly active |
| modified apoB3359-3367: modified form of the apoB3359-3367 9-mer; sequence only in the drawing of Table 1 (LRTRKRGRK) [reference compound] |  |  | no detectable antibacterial activity |  |  |  |
